Reference: patent US20230365647A1 (priority 2020, published 2023)
Where two headings read alike, the source gives them in different places. Where no end group is shown, it is not given here.

Tests used:
PLY [1] = molecular target: T1, PLY (Streptococcus pneumoniae serotype 4, UniProt P0C2J9); conditions: for inhibition of PLY-induced hemolysis: human
LLO [2] = molecular target: T2, LLO (Listeria monocytogenes serotype 4a, UniProt B8DGM3); conditions: for inhibition of LLO-induced hemolysis: human
PLY [3] = molecular target: T1, PLY; assay type: binding
PLY [4] = molecular target: T1, PLY; assay type: cell-based
[5] = system: wild-type pneumococci T4 (TIGR4); assay type: cell-based
[6] = system: pneumococci of type 4 or type 2; assay type: cell-based, Streptococcus pneumoniae
S. pneumoniae T4 [7] = system: S. pneumoniae T4; set-up: species or system zebrafish (Danio renio); conditions: in vivo
[8] = system: pneumococcal strain T4 (TIGR4 of serotype 4); assay type: binding
PLY [9] = molecular target: T1, PLY; assay type: cell-based; remark: listed apart in the source
[10] = system: pneumococci, type 2 (D39) or type 4 (T4); assay type: cell-based, Streptococcus pneumoniae
LLO [11] = molecular target: T2, LLO; assay type: cell-based
PLY [12] = molecular target: T1, PLY; assay type: cell-based; remark: listed apart in the source
S. pneumoniae T4R = assay type: cell-based
PLY [13] = molecular target: T1, PLY; assay type: cell-based; remark: listed apart in the source
S. pneumoniae T4 [14] = assay type: cell-based, Streptococcus pneumoniae
[15] = system: human THP-1 derived macrophages; assay type: cell-based
LLO [16] = molecular target: T2, LLO; assay type: binding
[17] = mouse, in vivo

For DCTSAGRSDGWLW [CP1], the “PLY-induced hemolysis, residual red blood cell pellet” value (PLY [1]) was “Complete hemolysis”, the “LLO-induced hemolysis, residual red blood cell pellet” value (LLO [2]) was “Complete hemolysis” and the “binding to PLY (ELISA)” value (PLY [3]) was “only background levels of binding”.

For LVGNIEQNEHSVI [CP2], the “protection of THP-1 macrophages from PLY cytolysis (live/dead stain)” value (PLY [4]) was “not”, the “PLY-induced hemolysis, residual red blood cell pellet” value (PLY [1]) was “Complete hemolysis” and the “LLO-induced hemolysis, residual red blood cell pellet” value (LLO [2]) was “Complete hemolysis”. For the same sequence, the “number of invading bacteria in lung epithelial model (CFU)” value [5] was “not”, the “intracellular bacteria in DCs (fluorescence microscopy)” value [6] was “not” and the “survival of infected zebrafish embryos” value (S. pneumoniae T4 [7]) was “did not show any significant effect”. For the same sequence, the “binding of FITC-labelled peptide to PLY-producing strain T4” value [8] was “did not show any binding”, the “LDH release into the supernatant of lung tissue model” value (PLY [9]) was “did not show any significant reduction” and the “number of intracellular bacteria in DCs (CFU)” value [10] was “did not show any significant difference”. For the same sequence, the “cell death of macrophages induced by LLO (LDH release)” value (LLO [11]) was “no significant effect”, the “cell death of macrophages induced by PLY (LDH release)” value (PLY [12]) was “no significant effect” and the “co-localization of intracellular T4R with autophagy marker LC3B” value (S. pneumoniae T4R) was “did not promote co-localization”. The “release of IL-8 in lung tissue model” value (PLY [13]) was “not”, the “release of TNF-α in lung tissue model” value (PLY [13]) was “not” and the “binding to PLY (ELISA)” value (PLY [3]) was “only background levels of binding”. The “hemolytic activity of pneumococcal strain T4” value (S. pneumoniae T4 [14]) was “no effect”.

In the case of YENWAYGEPNNYQ [P3, YENWAYGEPNNYQ], the “PLY-induced hemolysis, increasing concentrations of the peptides” value (PLY [1]) is reported as “dose-dependently inhibited”, the “inhibition of PLY-induced hemolysis” value (PLY [1]) is reported as “up to 50%” and the “inhibition of LLO-induced hemolysis” value (LLO [2]) is reported as roughly 35%. The “release of IL-8” value [15] was “significantly reduced”, the “release of IL-12” value [15] was “significantly reduced” and the “release of TNF-α” value [15] was “significantly reduced”. The “cell death of macrophages induced by LLO (LDH release)” value (LLO [11]; 18 h) was “significantly reduced cell death”, the “binding to LLO (ELISA)” value (LLO [16]) was “bound dose-dependently” and the “cell death of macrophages induced by PLY (LDH release)” value (PLY [12]; 18 h) was “significantly reduced cell death”. The “binding to PLY (ELISA)” value (PLY [3]) was “bind dose-dependently”.

For FTWSDGSPVSYEN [P2, FTWSDGSPVSYEN], the “inhibition of PLY-induced hemolysis” value (PLY [1]) was “up to 50%”, the clinical symptoms [17] was “did not develop any clinical symptoms” and the “toxicity by lung histology analysis” value [17] was “not toxic”. For the same sequence, the “inhibition of LLO-induced hemolysis” value (LLO [2]) was roughly 35%.
